Columns and labels:
human cyclin D1-CDK4 = human cyclin D1-CDK4 (Homo sapiens, UniProt P11802); assay: FlashPlate kinase assay, cyclin D1-CDK4, Rb substrate; format: biochemical; conditions: recombinant cyclin D1-CDK4, Rb phosphorylation, 1 μM ATP
Method in brief: (§1)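 Recombinant human cyclin–CDK complexes, co-expressed in insect cells, phosphorylated His-tagged Rb (aa 386-928) coated on FlashPlates at 10 μg/ml. Reaction used 1 μM ATP plus 4 nM ^33P-ATP and 20 mM MgCl2 for 30 min at room temperature. % inhibition came from scintillation counts against no-enzyme and no-compound wells, and IC50 was the concentration halving radiolabel incorporation.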

human cyclin B-CDK1 = human cyclin B-CDK1 (Homo sapiens, UniProt P06493); assay: FlashPlate kinase assay, cyclin B-CDK1, Rb substrate; format: biochemical; conditions: recombinant cyclin B-CDK1, Rb phosphorylation, 1 μM ATP
human cyclin B-CDK1, sequence (P06493 whole entry): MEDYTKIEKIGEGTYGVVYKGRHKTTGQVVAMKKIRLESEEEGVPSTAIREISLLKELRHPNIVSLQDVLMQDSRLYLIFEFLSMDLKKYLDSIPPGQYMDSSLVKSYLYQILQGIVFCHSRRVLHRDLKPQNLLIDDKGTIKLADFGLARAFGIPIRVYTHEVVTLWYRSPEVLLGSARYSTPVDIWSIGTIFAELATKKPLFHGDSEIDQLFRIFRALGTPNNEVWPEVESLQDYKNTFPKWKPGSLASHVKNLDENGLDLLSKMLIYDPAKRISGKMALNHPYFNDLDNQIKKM
human cyclin B-CDK1, sequence (P14635 whole entry partner): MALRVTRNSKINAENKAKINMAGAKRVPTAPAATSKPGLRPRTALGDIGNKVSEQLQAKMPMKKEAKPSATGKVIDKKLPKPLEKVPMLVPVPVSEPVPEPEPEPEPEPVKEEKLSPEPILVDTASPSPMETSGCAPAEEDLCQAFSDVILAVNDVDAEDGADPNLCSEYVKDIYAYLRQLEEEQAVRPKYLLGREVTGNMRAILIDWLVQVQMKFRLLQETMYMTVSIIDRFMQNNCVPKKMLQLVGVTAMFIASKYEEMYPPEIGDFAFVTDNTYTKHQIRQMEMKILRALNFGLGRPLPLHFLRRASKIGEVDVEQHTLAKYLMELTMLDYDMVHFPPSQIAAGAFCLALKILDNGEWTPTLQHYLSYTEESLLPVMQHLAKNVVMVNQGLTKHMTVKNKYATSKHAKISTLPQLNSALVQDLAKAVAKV
Method in brief: as §1

[1] = test system: HCT116, a colorectal carcinoma cell line; assay: Tetrazolium dye proliferation assay (MTT assay); format: cell-based; conditions: Homo sapiens, HCT-116, HCT116 cells, inhibition of cell proliferation
Method: Proliferation was evaluated by the tetrazolium dye assay according to the procedure of Denizot and Lang (Denizot, F. and Lang, R. J Immunol Methods 1986, 89, 271-277). The cell line used was HCT116, a colorectal carcinoma cell line obtained from the American Type Cell Culture Collection (ATCC; Rockville, Md.). The cells were grown in McCoy's 5A medium supplemented with 10% FCS and L-glutamine.
Cells were plated at the appropriate seeding density to give logarithmic growth over the course of the assay in a 96-well tissue culture plate. Plates were incubated overnight at 37° C. in a humidified incubator with 5% CO2. The next day, test compounds were serially diluted to four times the final concentration in the appropriate medium containing 1.2% DMSO. One-fourth final volume of each dilution was added in duplicate to the plates containing cells. The same volume of 1.2% DMSO in medium was added to a row of “control wells” such that the final concentration of DMSO in each well was 0.3%. Wells to which no cells were added served as the “blank.” Wells to which no inhibitor was added served as “no inhibitor control.” The plates were) returned to the incubator, and at set time points (determined by their growth curves) plates were analyzed as described below.
3-(4,5-dimethylthiazole-2-yl)-2,5-diphenyl-2H-tetrazolium bromide (thiazolyl blue; MTT; Sigma) was added to each well to yield a final concentration of 1 mg/ml. Plates were returned to the incubator for 2.5-3 hours at 37° C. The MTT-containing medium was removed and the resulting formazan metabolite was solubilized in 100% ethanol with shaking for 15 minutes at room temperature. Absorbance readings were taken in a microtiter plate reader (Dynatech and Molecular Devices plate readers were used interchangeably) at a wavelength of 570 nm with a 650 nm reference. Percent inhibition (% INH) is calculated by subtracting the absorbance of the blank well from all wells, then subtracting the ratio of the average absorbance of each test duplicate (SAVE) by the average of the controls (CAVE) from 1.00. The final number is then multiplied by 100 (% INH=(1.00−SAVE/CAVE)×100). The concentration at which 50% inhibition of cell proliferation is obtained (the IC50) is determined from the linear regression of a plot of the logarithm of the concentration versus percent inhibition.

human cyclin E-CDK2 = human cyclin E-CDK2 (Homo sapiens, UniProt P24941); assay: FlashPlate kinase assay, cyclin E-CDK2, Rb substrate; format: biochemical; conditions: recombinant cyclin E-CDK2, Rb phosphorylation, 1 μM ATP
Method in brief: as §1

human cyclin D1-CDK4, sequence (P11802 whole entry, the tested form may be a part): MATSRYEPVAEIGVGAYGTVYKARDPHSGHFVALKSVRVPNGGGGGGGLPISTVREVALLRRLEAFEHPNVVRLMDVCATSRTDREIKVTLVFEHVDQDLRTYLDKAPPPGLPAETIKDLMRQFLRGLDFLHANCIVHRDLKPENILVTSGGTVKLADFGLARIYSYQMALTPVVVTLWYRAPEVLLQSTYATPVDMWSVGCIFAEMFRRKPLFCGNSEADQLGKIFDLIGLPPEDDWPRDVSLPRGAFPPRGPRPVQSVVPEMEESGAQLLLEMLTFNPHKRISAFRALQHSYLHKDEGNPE
human cyclin D1-CDK4, sequence (P24385 whole entry partner, the tested form may be a part): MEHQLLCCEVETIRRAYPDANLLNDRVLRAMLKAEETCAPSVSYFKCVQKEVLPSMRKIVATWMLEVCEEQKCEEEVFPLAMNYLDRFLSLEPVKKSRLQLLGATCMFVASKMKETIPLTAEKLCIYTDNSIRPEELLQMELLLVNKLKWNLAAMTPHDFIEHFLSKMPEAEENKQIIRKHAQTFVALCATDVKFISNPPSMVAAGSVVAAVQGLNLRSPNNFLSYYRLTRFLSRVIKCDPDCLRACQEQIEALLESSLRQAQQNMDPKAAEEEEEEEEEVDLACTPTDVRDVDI

Structure (SMILES) | IC50 (human cyclin D1-CDK4) [nM] | IC50 (human cyclin B-CDK1) [nM] | IC50 [1] [nM] | IC50 (human cyclin E-CDK2) [nM]
C[C@H](COc1ccc(Nc2nc(N)c(C(=O)c3cccc(C4CC4)c3)s2)cc1)N1CCCC1 [Example 68, (R)-[4-Amino-2-[4-(2-pyrrolidin-1-yl-propoxy)-phenylamino]-thiazol-5-yl]-(3-cyclopropyl-phenyl)-methanone] | 51 | 2070 | 1210 | 4540
CCN(CC)CCOc1ccc(Nc2nc(N)c(C(=O)c3ccc(OC)c(F)c3)s2)cc1 [Example 125, [4-Amino-2-[4-(2-diethylamino-ethoxy)-phenylamino]-thiazol-5-yl]-(3-fluoro-4-methoxy-phenyl)-methanone] | 32 | 2180 | 2220 | 6790
COc1ccc(C(=O)c2sc(Nc3ccc(OC4CCNC4)cc3)nc2N)cc1F (stereo not shown) [Example 96, [4-Amino-2-[4-(pyrrolidin-3-yloxy)-phenylamino]-thiazol-5-yl]-(3-fluoro-4-methoxy-phenyl)-methanone] | 39 | 668 | 3290 | 1440
CCc1cccc(C(=O)c2sc(Nc3ccc(OC[C@@H](C)N4CCCC4)cc3)nc2N)c1 [Example 67, (R)-[4-Amino-2-[4-(2-pyrrolidin-1-yl-propoxy)-phenylamino]-thiazol-5-yl]-(3-ethyl-phenyl)-methanone] | 70 | 2760 | 846 | 1480
CCc1cccc(C(=O)c2sc(Nc3ccc(OC[C@@H]4CCCN4C)cc3)nc2N)c1 [Example 112, (S)-[4-Amino-2-[4-(1-methyl-pyrrolidin-2-ylmethoxy)-phenylamino]-thiazol-5-yl]-(3-ethyl-phenyl)-methanone] | 42 | 1890 | 419 | 2320
CCCc1cc(C(=O)c2sc(Nc3ccc(OC[C@@H]4CCCN4C)cc3)nc2N)ccc1O [Example 115, (S)-[4-Amino-2-[4-(1-methyl-pyrrolidin-2-ylmethoxy)-phenylamino]-thiazol-5-yl]-(4-hydroxy-3-propyl-phenyl)-methanone Acetate] | 27 | 357 | 169 | 267
CCNCCOc1ccc(Nc2nc(N)c(C(=O)c3cccc(CC)c3)s2)cc1 [Example 101, [4-Amino-2-[4-(2-ethylamino-ethoxy)-phenylamino]-thiazol-5-yl]-(3-ethyl-phenyl)-methanone; Compound With Acetic Acid] | 21 | 660 | 685 | 1110
CCN(CC)CCOc1ccc(Nc2nc(N)c(C(=O)c3ccc(O)c(F)c3)s2)cc1 [Example 123, [4-Amino-2-[4-(2-diethylamino-ethoxy)-phenylamino]-thiazol-5-yl]-(3-fluoro-4-hydroxy-phenyl)-methanone] | 36 | 422 | 1870 | 1660
COc1cccc(C(=O)c2sc(Nc3ccc(OC[C@@H](C)N4CCCC4)cc3)nc2N)c1 [Example 121, [R]-[4-Amino-2-[4-(2-pyrrolidin-1-yl-propoxy)-phenylamino]-thiazol-5-yl]-(3-methoxy-phenyl)-methanone; Compound With Acetic Acid] | 60 | 1790 | 1060 | 4910
CCN1CCC(Oc2ccc(Nc3nc(N)c(C(=O)c4cccc(C5CC5)c4)s3)cc2)C1 (stereo not shown) [Example 85, [4-Amino-2-[4-(1-ethyl-pyrrolidin-3-yloxy)-phenylamino]-thiazol-5-yl]-(3-cyclopropyl-phenyl)-methanone] | 51 | 1080 | 2010 | 887
CCc1ccc(C(=O)c2sc(Nc3ccc(OCCN4CCCC4)cc3)nc2N)cc1F [Example 6, [4-Amino-2-[4-(2-pyrrolidin-1-yl-ethoxy)-phenylamino]-thiazol-5-yl]-(4-ethyl-3-fluoro-phenyl)-methanone; Compound With Trifluoroacetic Acid] | 43 | 1130 | 3700 | 3170
CCN1CCCC(Oc2ccc(Nc3nc(N)c(C(=O)c4cccc(C)c4)s3)cc2)C1 (stereo not shown) [Example 78, [4-Amino-2-[4-(1-ethyl-piperidin-3-yloxy)-phenylamino]-thiazol-5-yl]-m-tolyl-methanone] | 41 | 806 | 1510 | 1080
CCCc1cc(C(=O)c2sc(Nc3ccc(OCCN4CCCC4)cc3)nc2N)ccc1O [Example 109, [4-Amino-2-[4-(2-pyrrolidin-1-yl-ethoxy)-phenylamino]-thiazol-5-yl]-(4-hydroxy-3-propyl-phenyl)-methanone; Compound With Acetic Acid] | 14 | 151 | 229 | 207
CN1CCC[C@H]1COc1ccc(Nc2nc(N)c(C(=O)c3cccc(F)c3)s2)cc1 [Example 44, (S)-[4-Amino-2-[4-(1-methyl-pyrrolidin-2-ylmethoxy)-phenylamino]-thiazol-5-yl]-(3-fluoro-phenyl)-methanone] | 65 | 594 | 390 | 1270
Cc1cccc(C(=O)c2sc(Nc3ccc(OCCN(C)C)cc3)nc2N)c1 [Example 50, [4-Amino-2-[4-(2-dimethylamino-ethoxy)-phenylamino]-thiazol-5-yl]-m-tolyl-methanone] | 60 | 1700 | 1040 | 3360
C[C@H](COc1ccc(Nc2nc(N)c(C(=O)c3cccc(F)c3)s2)cc1)N(C)C [Example 40, (R)-[4-Amino-2-[4-(2-dimethylamino-propoxy)-phenylamino]-thiazol-5-yl]-(3-fluoro-phenyl)-methanone] | 87 | 581 | 346 | 1010
CCCc1cc(C(=O)c2sc(Nc3ccc(OC[C@@H](C)N(C)C)cc3)nc2N)ccc1O [Example 107, (R)-[4-Amino-2-[4-(2-dimethylamino-propoxy)-phenylamino]-thiazol-5-yl]-(4-hydroxy-3-propyl-phenyl)-methanone; Compound With Acetic Acid] | 26 | 240 | 491 | 213
CCc1cccc(C(=O)c2sc(Nc3ccc(OC4CCCN(CC)C4)cc3)nc2N)c1 (stereo not shown) [Example 79, [4-Amino-2-[4-(1-ethyl-piperidin-3-yloxy)-phenylamino]-thiazol-5-yl]-(3-ethyl-phenyl)-methanone] | 23 | 1080 | 1470 | 1170
CCNCCOc1ccc(Nc2nc(N)c(C(=O)c3ccc4c(c3)OCO4)s2)cc1 [Example 133, [4-Amino-2-[4-(2-ethylamino-ethoxy)-phenylamino]-thiazol-5-yl]-benzo[1,3]dioxol-5-yl-methanone] | 29 | 338 | 3000 | 3170
CN(C)CCOc1ccc(Nc2nc(N)c(C(=O)c3cccc([N+](=O)[O-])c3)s2)cc1 [Example 54, [4-Amino-2-[4-(2-dimethylamino-ethoxy)-phenylamino]-thiazol-5-yl]-(3-nitro-phenyl)-methanone] | 36 | 381 | 1640 | 1240
CCNCCOc1ccc(Nc2nc(N)c(C(=O)c3cccc(OC)c3)s2)cc1 [Example 130, [4-Amino-2-[4-(2-ethylamino-ethoxy)-phenylamino]-thiazol-5-yl]-(3-methoxy-phenyl)-methanone] | 48 | 784 | 1390 | 3330
CN(C)CCOc1ccc(Nc2nc(N)c(C(=O)c3cccc(Br)c3)s2)cc1 [Example 65, [4-Amino-2-[4-(2-dimethylamino-ethoxy)-phenylamino]-thiazol-5-yl]-(3-bromo-phenyl)-methanone] | 85 | 1070 | 3240 | 1690
